Data on one compound can be found in PMC8835499, “Challenging Approach to the Development of Novel Estrogen Receptor Modulators Based on the Chemical Properties of Guaiazulene” (International Journal of Molecular Sciences, 2022).

The assay concerns the target T1, estrogen receptor α (ERα) (Homo sapiens, UniProt P03372).
T1 construct: gene ESR1; ERα LBD (human recombinant ERα)
T1 sequence (P03372 311-547 limits assumed): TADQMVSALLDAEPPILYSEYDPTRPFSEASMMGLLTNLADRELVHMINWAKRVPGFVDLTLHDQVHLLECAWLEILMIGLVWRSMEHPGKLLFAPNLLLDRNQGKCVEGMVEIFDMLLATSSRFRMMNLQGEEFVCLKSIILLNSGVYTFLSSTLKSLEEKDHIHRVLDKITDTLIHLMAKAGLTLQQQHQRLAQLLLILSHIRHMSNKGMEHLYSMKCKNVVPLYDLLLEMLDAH
In words: competitive radioligand binding assay with [3H][…]β-estradiol (nitrocellulose filtration).

The compound `Cc1cc(C=C(c2ccc(O)cc2)c2ccc(O)cc2)c2c(C)ccc(C(C)C)cc1-2` [Az-01, 4,4′-(2-(5-Isopropyl-3,8-dimethylazulen-1-yl)ethene-1,1-diyl)diphenol] returned an IC50 of 1.22 nM.
